Test systems include CAKI-1; HCC 2998; HCT-116; KM12; NCI-H226; NCI-H23; NCI-H460; OVCAR-3; OVCAR-8; SF-539; SK-MEL-28; SK-MEL-2; TK-10; U-251; UO-31; OVCAR-4; SNB-75.
Test in all cases: DTP human tumour cell line panel, 48 h

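Method: 48-hour compound exposure of cells in 96-well plates, five concentrations, linear interpolation of endpoints. Abbreviation: GI50, concentration required for 50% inhibition of growth.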 Activity calls are given as the source filed them. Rule as the data show it: active = GI50 up to about 1.1 µM and inactive = higher. Bounds are passed on as bounds.

One may read the GI50 as the concentration giving 50% growth inhibition. `O=C(/C=C/c1ccccc1)/C=C/c1ccccc1O`: the GI50 in the test on CAKI-1 is 22 µM (inactive); in the test on HCC 2998, 12.5 µM (inactive); with HCT-116, 15.1 µM (inactive); with KM12, 17.8 µM (inactive); in the test with NCI-H226 it was 22 µM (inactive); in the test on NCI-H23 it was 24.9 µM (inactive). Further, the GI50 is 19.1 µM (inactive) in the test with NCI-H460; 0.0401 µM (active) in the test with OVCAR-3; 17 µM (inactive) in the test on OVCAR-8; 22 µM (inactive) in the test with SF-539; 34.6 µM (inactive) in the test with SK-MEL-28; 59.3 µM (inactive) with SK-MEL-2. The GI50 in the test on TK-10 was 30.1 µM (inactive); in the test with U-251 it was 17.6 µM (inactive); with UO-31, 16.4 µM (inactive).
For `COC(=O)c1ccc(Cc2ccc(C(=O)OC)o2)o1`, the GI50 in the test with CAKI-1, in the test on HCC 2998, in the test on HCT-116, with KM12, in the test with NCI-H226 and in the test on NCI-H23 was > 378 µM (inactive) in each case. For the same compound, the GI50 in the test on NCI-H460, in the test with OVCAR-3, in the test with OVCAR-8, in the test with SF-539, in the test on SK-MEL-28 and in the test on SK-MEL-2 was > 378 µM (inactive) each time. Moreover, the GI50 in the test with TK-10 and with U-251 was > 378 µM (inactive) throughout.
`COC(=O)C(=O)C(C(=O)C1=NS(=O)(=O)c2cc(S(N)(=O)=O)c(Cl)cc2N1)c1nc2ccc(C(=O)c3ccccc3)cc2nc1O` (configuration not stated): the GI50 in the test with CAKI-1 was 57.8 µM (inactive); in the test with HCC 2998 it was > 100 µM (inactive); in the test on HCT-116 it was > 100 µM (inactive); in the test on KM12, 67.6 µM (inactive); in the test with NCI-H226, > 100 µM (inactive); in the test with NCI-H23, 2.6 µM (inactive). The GI50 was > 100 µM (inactive) in the test with NCI-H460; 81.5 µM (inactive) with OVCAR-4; 59 µM (inactive) in the test with OVCAR-8; 90.6 µM (inactive) in the test with SF-539; > 100 µM (inactive) with SK-MEL-28; > 100 µM (inactive) in the test on SK-MEL-2. The GI50 is > 100 µM (inactive) in the test with TK-10, > 100 µM (inactive) in the test with U-251 and 79.4 µM (inactive) in the test on UO-31.
On to `NNC(=S)N/N=C(\c1nc2ccc(Cl)cc2nc1O)C(O)c1ccc(Cl)cc1Cl` (configuration not stated), for which the GI50 with CAKI-1, in the test with HCT-116, in the test with KM12, with NCI-H226, in the test on NCI-H23 and in the test with NCI-H460 was > 100 µM (inactive) in each case. The GI50 in the test with OVCAR-4, in the test with OVCAR-8, with SF-539, with SK-MEL-28, in the test with SK-MEL-2 and in the test with SNB-75 was > 100 µM (inactive) each time. For the same compound, the GI50 in the test on TK-10, with U-251 and in the test with UO-31 was > 100 µM (inactive) each time.
As to `CC(C)(Oc1ccc2c(=O)cc(-c3ccccc3)oc2c1)C(=O)Nc1c(Cl)cccc1Cl`, the GI50 in the test with CAKI-1 was > 100 µM (inactive); with HCT-116, 59.2 µM (inactive); with KM12, 79.1 µM (inactive); with NCI-H23, > 100 µM (inactive); with NCI-H460 it was > 100 µM (inactive); with OVCAR-3, > 100 µM (inactive). The GI50 is 29.4 µM (inactive) in the test on OVCAR-8; > 100 µM (inactive) with SF-539; > 100 µM (inactive) with SK-MEL-28; > 100 µM (inactive) in the test with SK-MEL-2; > 100 µM (inactive) with TK-10; > 100 µM (inactive) in the test with U-251. Besides, the GI50 in the test with UO-31 was 9.66 µM (inactive).

For the origin of these results see ChEMBL document CHEMBL1201862, “PubChem BioAssay data set” (2004).
